Values quoted from earlier work as cited in patent publication US20170007591A1, “Composition to Mitigate Spikes in Blood Sugar” (Panacea Scientific, Inc., priority 2015, published 2017).

Legend:
μ-opioid receptor = μ-opioid receptor (Homo sapiens, UniProt P35372); settings: acts as non-selective antagonist
δ-opioid receptor = δ-opioid receptor (Homo sapiens, UniProt P41143); settings: acts as non-selective antagonist
κ-opioid receptor = κ-opioid receptor (Homo sapiens, UniProt P41145); settings: acts as non-selective antagonist
κ-opioid receptor, sequence (P41145 whole entry): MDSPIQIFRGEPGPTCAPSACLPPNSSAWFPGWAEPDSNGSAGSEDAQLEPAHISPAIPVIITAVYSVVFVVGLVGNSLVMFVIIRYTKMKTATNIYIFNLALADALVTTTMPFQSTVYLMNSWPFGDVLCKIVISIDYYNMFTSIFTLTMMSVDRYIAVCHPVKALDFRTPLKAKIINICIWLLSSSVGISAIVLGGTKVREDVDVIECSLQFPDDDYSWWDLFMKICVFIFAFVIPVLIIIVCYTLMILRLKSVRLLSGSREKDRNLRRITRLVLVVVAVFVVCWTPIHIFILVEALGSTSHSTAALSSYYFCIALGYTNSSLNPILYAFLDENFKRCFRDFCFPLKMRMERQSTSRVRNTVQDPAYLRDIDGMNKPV

CYP2C9 = CYP2C9 (Homo sapiens, UniProt P11712); settings: in humans
CYP2C9, sequence (P11712 whole entry): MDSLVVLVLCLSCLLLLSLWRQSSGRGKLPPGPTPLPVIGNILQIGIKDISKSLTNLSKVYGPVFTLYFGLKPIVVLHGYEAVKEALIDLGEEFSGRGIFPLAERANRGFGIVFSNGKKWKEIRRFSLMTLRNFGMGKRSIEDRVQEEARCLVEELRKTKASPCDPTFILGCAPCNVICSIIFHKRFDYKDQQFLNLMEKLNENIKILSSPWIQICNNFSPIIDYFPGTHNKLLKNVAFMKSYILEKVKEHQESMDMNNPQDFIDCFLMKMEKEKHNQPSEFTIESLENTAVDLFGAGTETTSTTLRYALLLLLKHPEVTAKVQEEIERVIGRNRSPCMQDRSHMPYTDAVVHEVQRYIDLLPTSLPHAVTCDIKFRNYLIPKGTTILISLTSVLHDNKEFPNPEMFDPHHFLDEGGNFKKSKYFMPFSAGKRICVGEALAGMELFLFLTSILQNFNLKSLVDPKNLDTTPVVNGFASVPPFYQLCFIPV

[1] = rats; 20 mg piperine dose with 2 g/kg dose of curcumin

μ-opioid receptor, sequence (P35372 whole entry): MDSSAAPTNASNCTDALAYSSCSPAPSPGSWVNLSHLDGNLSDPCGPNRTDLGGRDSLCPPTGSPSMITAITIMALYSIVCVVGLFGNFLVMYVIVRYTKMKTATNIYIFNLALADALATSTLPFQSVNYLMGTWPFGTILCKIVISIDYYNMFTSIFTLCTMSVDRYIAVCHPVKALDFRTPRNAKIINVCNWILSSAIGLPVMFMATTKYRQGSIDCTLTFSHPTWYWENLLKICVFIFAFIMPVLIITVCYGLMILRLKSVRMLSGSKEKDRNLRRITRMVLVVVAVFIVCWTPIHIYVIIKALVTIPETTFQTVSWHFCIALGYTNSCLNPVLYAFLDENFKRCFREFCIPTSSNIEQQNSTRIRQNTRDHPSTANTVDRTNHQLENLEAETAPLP
δ-opioid receptor, sequence (P41143 whole entry): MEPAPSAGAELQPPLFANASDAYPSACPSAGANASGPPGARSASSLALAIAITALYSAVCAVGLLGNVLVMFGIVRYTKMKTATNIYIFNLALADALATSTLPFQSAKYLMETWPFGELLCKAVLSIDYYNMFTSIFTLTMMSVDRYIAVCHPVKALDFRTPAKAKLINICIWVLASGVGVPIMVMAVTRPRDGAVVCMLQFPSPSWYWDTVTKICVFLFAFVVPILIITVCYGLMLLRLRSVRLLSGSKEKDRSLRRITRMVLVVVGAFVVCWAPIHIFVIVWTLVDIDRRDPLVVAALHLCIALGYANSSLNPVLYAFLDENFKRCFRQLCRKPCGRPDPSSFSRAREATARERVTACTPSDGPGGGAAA

Question: Which “affinity for μ-opioid receptor” value (μ-opioid receptor) does the source give for `O=c1cc(-c2ccc(O)cc2)oc2cc(O)cc(O)c12` [apigenin, 4′,5,7-trihydroxyflavone] here?
Answer: Its value is “nonomolar affinity”.

Question: And the “affinity for δ-opioid receptor” value (δ-opioid receptor)?
Answer: The value was “nonomolar affinity”.

Question: What about the “affinity for κ-opioid receptor” value (κ-opioid receptor) of the same molecule?
Answer: The value was “nonomolar affinity”.

Question: And the “inhibition of CYP2C9” value (CYP2C9)?
Answer: The value was “inhibits the enzyme CYP2C9”.

Question: For `O=C(/C=C/C=C/c1ccc2c(c1)OCO2)N1CCCCC1` [piperine], which “increase of the bioavailability of curcumin” value [1] is on record?
Answer: The value was 154%.
